# What was measured:
# HER4 kinase = target: T1, HER4 kinase (Homo sapiens, UniProt Q15303); assay: Test 12: HER4 kinase screening test; format: binding; details: for inhibition at 1 µM: compound concentration 1 μM, read-out: 1 μM Inhibition rate (%); for inhibition at 10 µM: compound concentration 10 μM, read-out: 10 μM Inhibition rate (%)
# T1 construct: made in house
# Experimental: Test 12: HER4 Kinase Screening Test
# Most kinase activity tests were carried out by T7 phage expressing kinase expressed in E. coli system. After E. coli grew to the logarithmic phase, E. coli was infected with T7 bacteriophage (moi=0.4) and cultured with shaking at 32° C. until lysis (90-150 minutes). The lysate was filtered with a centrifuge (6,000 g) and filtration membrane (0.2 μm) to remove cell debris. Other individual kinases to be tested were expressed by HEK-293 cells and labeled with DNA for qPCR detection.
# Next, the ligand magnetic beads were blocked with excess biotin and washed with blocking buffer (SeaBlock (Pierce), 1% BSA, 0.05% Tween-20, 1 mm DTT) to remove unbound ligand and reduce non-specific binding of phages. […] 100% DMSO was used to prepare the test compound at a concentration of 40×, which was directly diluted into the reaction system. All reactions were carried out on a polypropylene 384-well plate, and the final volume of the reaction system was 0.02 ml.
# BaF3 (EGFR-D770insSVD) = BaF3 (EGFR-D770insSVD) (Homo sapiens, UniProt P00533, DUP768-770, cells depend on it); assay: Test 2: BaF3 (EGFR-D770insSVD) cell proliferation test; format: cell-based; details: 72 hours, Cell Titer-Glo, read-out: Test 2 - IC50
# Experimental: Test 2: BaF3 (EGFR-D770insSVD) Cell Proliferation Test
# BaF3 (EGFR-D770insSVD) was cultured in RPMI1640 medium containing 10% fetal bovine serum and 2 mM glutamine. The cells were grown at 37° C. in a humidified incubator with 5% CO2.
# (§1) The number of viable cells in the culture was measured according to the protocol described in Promega's Cell Titer-Glo Luminescent cell Viability Assay (Promega catalog number #G7570). 90 μl of cells (3,000 cells/well) were cultured in growth medium in a Corning black transparent bottom 96-well plate, and cultured in a 5% CO2 humidified incubator at 37° C. overnight. The compound serially diluted in 100% DMSO was added to the cells using a pipette, and the cells were incubated for another 72 hours. 100 μl of the mixed Cell Titer-Glo reagent was added to the cells in the 96-well culture plate to lyse the cells and mix gently. Subsequently, the […] was detected on the Envision microplate detector to obtain the data of each compound. Finally, the data was input into a suitable software package (such as Prism) for curve fitting analysis.
# [1] = test system: NCI-H1975 (EGFR L858R/T790M double mutant); assay: Test 1: EGFR L858R/T790M (EGFR double mutant) cell proliferation test; format: cell-based; details: Homo sapiens; NCI-H1975 cells, 72 hours, Cell Titer-Glo
# BaF3 (EGFR-L861Q) = BaF3 (EGFR-L861Q) (Homo sapiens, UniProt P00533, L861Q, cells depend on it); assay: Test 8: BaF3 (EGFR-L861Q) cell proliferation test; format: cell-based; details: 72 hours, Cell Titer-Glo, read-out: Test 8 - IC50
# BaF3 (EGFR-L861Q), sequence (P00533 whole entry L861Q): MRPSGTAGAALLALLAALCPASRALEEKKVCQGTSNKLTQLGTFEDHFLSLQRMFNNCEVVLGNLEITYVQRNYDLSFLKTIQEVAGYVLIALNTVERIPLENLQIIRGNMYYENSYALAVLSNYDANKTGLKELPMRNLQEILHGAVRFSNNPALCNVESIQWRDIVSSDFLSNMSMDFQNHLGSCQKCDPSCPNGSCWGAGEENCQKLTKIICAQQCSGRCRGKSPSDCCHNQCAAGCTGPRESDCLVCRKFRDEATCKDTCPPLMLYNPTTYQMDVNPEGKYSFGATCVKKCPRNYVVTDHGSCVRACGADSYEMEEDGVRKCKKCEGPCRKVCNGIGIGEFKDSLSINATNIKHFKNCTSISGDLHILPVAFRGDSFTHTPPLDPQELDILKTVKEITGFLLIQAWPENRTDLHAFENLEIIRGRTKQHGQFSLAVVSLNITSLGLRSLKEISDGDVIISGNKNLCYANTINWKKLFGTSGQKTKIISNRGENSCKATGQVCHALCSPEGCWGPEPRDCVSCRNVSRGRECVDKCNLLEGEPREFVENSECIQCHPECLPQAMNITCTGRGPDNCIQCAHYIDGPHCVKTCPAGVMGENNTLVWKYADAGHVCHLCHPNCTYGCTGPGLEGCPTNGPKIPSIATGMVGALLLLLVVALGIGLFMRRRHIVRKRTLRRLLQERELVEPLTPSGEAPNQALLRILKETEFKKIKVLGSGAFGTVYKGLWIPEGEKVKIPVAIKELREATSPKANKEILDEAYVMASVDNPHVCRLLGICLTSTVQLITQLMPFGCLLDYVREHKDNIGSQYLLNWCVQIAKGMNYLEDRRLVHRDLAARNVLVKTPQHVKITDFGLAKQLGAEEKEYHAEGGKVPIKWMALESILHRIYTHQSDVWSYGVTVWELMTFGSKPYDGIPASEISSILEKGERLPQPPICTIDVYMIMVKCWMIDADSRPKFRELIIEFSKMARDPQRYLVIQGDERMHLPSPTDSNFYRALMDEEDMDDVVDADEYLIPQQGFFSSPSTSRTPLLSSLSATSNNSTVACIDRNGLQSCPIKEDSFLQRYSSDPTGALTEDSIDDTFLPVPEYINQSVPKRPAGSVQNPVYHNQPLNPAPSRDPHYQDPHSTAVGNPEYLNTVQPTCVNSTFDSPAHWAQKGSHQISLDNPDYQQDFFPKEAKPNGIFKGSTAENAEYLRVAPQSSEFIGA
# Experimental: Test 8: BaF3 (EGFR-L8610) Cell Proliferation Test
# BaF3 (EGFR-L861Q) was cultured in RPMI1640 medium containing 10% fetal bovine serum and 2 mM glutamine. The cells were grown at 37° C. in a humidified incubator with 5% CO2.
# as §1
# BaF3 (HER2-G776insVC) = BaF3 (HER2-G776insVC) (Homo sapiens, UniProt P04626, cells depend on it, form not given); assay: Test 11: BaF3 (HER2-G776insVC) cell proliferation test; format: cell-based; details: 72 hours, Cell Titer-Glo, read-out: Test 11 - IC50
# BaF3 (HER2-G776insVC), sequence (P04626 with tags, fused parts or gaps DELINS776-776VC): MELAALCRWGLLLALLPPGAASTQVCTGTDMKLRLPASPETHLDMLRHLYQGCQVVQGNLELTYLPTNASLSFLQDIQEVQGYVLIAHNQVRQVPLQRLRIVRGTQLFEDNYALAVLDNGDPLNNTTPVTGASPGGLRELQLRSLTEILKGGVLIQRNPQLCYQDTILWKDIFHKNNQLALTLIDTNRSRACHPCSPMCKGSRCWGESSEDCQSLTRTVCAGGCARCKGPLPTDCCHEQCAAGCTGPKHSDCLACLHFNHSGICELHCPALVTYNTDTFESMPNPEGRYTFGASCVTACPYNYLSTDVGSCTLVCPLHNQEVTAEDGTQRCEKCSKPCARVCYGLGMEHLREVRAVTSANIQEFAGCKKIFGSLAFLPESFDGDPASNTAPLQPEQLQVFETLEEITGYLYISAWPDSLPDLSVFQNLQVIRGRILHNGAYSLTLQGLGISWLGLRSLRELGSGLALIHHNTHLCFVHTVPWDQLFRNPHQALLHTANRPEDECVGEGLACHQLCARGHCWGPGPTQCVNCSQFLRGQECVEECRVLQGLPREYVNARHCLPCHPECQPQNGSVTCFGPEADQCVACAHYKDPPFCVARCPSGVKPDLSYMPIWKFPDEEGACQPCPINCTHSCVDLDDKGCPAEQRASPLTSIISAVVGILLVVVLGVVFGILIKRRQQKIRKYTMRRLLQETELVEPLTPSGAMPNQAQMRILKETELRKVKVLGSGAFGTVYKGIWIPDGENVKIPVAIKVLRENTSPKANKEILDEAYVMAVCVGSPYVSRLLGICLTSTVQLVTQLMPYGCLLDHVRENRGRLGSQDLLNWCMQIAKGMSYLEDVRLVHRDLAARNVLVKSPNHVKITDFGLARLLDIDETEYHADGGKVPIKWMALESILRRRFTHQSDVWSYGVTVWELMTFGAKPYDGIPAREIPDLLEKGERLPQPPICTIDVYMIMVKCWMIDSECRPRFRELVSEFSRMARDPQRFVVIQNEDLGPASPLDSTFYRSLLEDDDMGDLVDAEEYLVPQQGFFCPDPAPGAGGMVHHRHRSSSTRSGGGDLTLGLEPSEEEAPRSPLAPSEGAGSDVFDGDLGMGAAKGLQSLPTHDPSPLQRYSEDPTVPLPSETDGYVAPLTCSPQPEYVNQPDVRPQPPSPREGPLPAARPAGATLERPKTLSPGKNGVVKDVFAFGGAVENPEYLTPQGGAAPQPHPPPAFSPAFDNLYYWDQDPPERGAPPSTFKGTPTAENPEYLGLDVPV
# Experimental: Test 11: BaF3 (HER2-G776insVC) Cell Proliferation Test
# The engineered cell line BaF3 (HER2-G776insVC) was constructed by the inventor himself (for the method of cell line construction, see Jingrui Jiang et al., Cancer Res. 2005 Oct. 1; 65 (19): 8964-74; Jacqulyne P. Robichaux et al., Nat Med. 2018 May; 24 (5): 638-646). BaF3 (HER2-G776insVC) was cultured in RPMI1640 medium containing 10% fetal bovine serum and 2 mM glutamine. The cells were grown at 37° C. in a humidified incubator with 5% CO2.
# as §1
# BaF3 (EGFR-V769insASV) = BaF3 (EGFR-V769insASV) (Homo sapiens, UniProt P00533, DUP767-769, cells depend on it); assay: Test 4: BaF3 (EGFR-V769insASV) cell proliferation test; format: cell-based; details: 72 hours, Cell Titer-Glo, read-out: Test 4 - IC50
# Experimental: Test 4: BaF3 (EGFR-V769insASV) Cell Proliferation Test
# BaF3 (EGFR-V769insASV) was cultured in RPMI1640 medium containing 10% fetal bovine serum and 2 mM glutamine. The cells were grown at 37° C. in a humidified incubator with 5% CO2.
# as §1
# BaF3 (HER2-P780insGSP) = BaF3 (HER2-P780insGSP) (Homo sapiens, UniProt P04626, DUP778-780, cells depend on it); assay: Test 10: BaF3 (HER2-P780insGSP) cell proliferation test; format: cell-based; details: 72 hours, Cell Titer-Glo, read-out: Test 10 - IC50
# BaF3 (HER2-P780insGSP), sequence (P04626 with tags, fused parts or gaps DUP778-780): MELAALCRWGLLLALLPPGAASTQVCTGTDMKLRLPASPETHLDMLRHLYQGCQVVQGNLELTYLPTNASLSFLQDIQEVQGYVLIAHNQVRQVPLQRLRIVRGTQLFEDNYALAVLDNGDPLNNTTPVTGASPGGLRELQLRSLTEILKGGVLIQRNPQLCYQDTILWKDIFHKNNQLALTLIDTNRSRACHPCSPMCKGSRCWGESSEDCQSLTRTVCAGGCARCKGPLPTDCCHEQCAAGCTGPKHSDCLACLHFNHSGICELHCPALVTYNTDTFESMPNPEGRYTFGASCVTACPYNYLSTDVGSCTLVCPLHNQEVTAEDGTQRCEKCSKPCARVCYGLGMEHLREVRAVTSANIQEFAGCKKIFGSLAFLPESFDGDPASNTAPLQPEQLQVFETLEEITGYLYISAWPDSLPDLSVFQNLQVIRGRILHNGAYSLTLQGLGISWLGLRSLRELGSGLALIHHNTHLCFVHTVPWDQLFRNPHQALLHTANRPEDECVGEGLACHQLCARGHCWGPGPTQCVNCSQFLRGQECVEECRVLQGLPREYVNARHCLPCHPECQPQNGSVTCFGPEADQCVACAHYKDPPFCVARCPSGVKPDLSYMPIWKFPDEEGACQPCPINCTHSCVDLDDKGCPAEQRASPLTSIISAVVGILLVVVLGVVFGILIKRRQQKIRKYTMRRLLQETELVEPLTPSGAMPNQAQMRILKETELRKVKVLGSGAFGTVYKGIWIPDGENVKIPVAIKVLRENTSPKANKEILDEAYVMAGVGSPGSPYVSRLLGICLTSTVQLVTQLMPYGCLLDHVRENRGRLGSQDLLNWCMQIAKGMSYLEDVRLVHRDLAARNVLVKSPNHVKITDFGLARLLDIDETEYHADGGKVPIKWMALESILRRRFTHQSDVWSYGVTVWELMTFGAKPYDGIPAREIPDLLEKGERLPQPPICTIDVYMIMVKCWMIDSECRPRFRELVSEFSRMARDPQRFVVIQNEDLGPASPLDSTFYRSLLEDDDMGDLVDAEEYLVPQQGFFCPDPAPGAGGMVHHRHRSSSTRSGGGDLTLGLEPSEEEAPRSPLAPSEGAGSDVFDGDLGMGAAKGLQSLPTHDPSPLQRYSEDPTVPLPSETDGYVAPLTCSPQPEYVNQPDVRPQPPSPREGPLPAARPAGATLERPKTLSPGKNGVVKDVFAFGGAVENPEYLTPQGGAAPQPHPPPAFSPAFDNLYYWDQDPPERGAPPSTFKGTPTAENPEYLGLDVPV
# Experimental: Test 10: BaF3 (HER2-P780insGSP) Cell Proliferation Test
# BaF3 (HER2-P780insGSP) was cultured in RPMI1640 medium containing 10% fetal bovine serum and 2 mM glutamine. The cells were grown at 37° C. in a humidified incubator with 5% CO2.
# as §1
# BaF3 (EGFR-D770insNPG) = BaF3 (EGFR-D770insNPG) (Homo sapiens, UniProt P00533, INS772GNP, cells depend on it); assay: Test 6: BaF3 (EGFR-D770insNPG) cell proliferation test; format: cell-based; details: 72 hours, Cell Titer-Glo, read-out: Test 6 - IC50
# BaF3 (EGFR-D770insNPG), sequence (P00533 with tags, fused parts or gaps INS772GNP): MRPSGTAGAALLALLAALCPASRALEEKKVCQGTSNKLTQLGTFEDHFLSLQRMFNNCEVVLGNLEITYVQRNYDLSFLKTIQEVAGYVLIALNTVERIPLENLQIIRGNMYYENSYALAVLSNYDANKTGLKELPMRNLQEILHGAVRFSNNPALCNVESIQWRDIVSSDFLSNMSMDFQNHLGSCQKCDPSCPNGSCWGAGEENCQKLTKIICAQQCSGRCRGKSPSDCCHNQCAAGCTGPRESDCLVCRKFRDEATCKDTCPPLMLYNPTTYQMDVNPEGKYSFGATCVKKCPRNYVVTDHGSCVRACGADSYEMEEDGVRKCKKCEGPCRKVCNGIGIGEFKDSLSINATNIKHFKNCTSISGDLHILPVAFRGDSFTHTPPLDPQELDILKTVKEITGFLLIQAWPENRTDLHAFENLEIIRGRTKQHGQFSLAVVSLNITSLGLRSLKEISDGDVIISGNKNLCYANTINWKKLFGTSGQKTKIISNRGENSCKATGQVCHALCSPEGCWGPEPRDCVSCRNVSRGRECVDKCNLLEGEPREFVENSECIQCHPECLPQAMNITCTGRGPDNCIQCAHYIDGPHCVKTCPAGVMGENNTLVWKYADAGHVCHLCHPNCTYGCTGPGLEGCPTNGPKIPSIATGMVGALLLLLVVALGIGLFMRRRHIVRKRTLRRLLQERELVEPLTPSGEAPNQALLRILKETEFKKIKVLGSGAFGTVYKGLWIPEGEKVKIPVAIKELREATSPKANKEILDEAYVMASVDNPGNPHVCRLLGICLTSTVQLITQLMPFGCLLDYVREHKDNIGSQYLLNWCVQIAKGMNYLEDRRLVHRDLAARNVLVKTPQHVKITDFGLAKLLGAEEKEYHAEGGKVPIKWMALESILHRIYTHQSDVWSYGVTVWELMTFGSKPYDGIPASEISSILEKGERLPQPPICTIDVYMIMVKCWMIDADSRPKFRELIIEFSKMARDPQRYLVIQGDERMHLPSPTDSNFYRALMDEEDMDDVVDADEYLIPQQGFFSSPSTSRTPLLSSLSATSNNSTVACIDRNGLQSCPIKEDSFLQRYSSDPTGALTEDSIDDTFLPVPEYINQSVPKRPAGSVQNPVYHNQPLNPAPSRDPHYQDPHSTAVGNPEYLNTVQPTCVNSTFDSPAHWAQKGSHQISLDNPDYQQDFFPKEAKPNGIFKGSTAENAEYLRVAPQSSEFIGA
# Experimental: Test 6: BaF3 (EGFR-D770insNPG) Cell Proliferation Test
# BaF3 (EGFR-D770insNPG) was cultured in RPMI1640 medium containing 10% fetal bovine serum and 2 mM glutamine. The cells were grown at 37° C. in a humidified incubator with 5% CO2.
# as §1
SMILES,inhibition at 1 µM (HER4 kinase),inhibition at 10 µM (HER4 kinase),GI50 (BaF3 (EGFR-D770insSVD)),IC50 [1],GI50 (BaF3 (EGFR-L861Q)),GI50 (BaF3 (HER2-G776insVC)),GI50 (BaF3 (EGFR-V769insASV)),GI50 (BaF3 (HER2-P780insGSP)),GI50 (BaF3 (EGFR-D770insNPG))
C=CC(=O)Nc1cc(Nc2ncnc(-c3cn(C)c4ccc(F)cc34)n2)c(OC)cc1N(C)CCN(C)C [Example 11],> 95%,> 95%,22.3 nM,13.5 nM,22.5 nM,1.07 nM,47.9 nM,8.76 nM,10.2 nM
"C=CC(=O)Nc1cc(Nc2ncnc(-c3cn(C)c4ccc(F)cc34)n2)c(OC(F)F)cc1N(C)CCN(C)C [Example 14, N-(4-(difluoromethoxy)-2-((2-(dimethylamino)ethyl)(methyl)amino)-5-((4-(5-fluoro-1-methyl-1H-indol-3-yl)-1,3,5-triazin-2-yl)amino)phenyl)acrylamide]",> 98%,> 98%,16.4 nM,16.8 nM,4.58 nM,1.95 nM,25.9 nM,6.92 nM,10 nM
"C=CC(=O)Nc1cc(Nc2ncnc(-c3cn(C)c4ccc(F)cc34)n2)c(OCC(F)(F)F)cc1N(C)CCN(C)C [Example 15, N-(2-((2-(dimethylamino)ethyl)(methyl)amino)-5-((4-(5-fluoro-1-methyl-1H-indol-3-yl)-1,3,5-triazin-2-yl)amino)-4-(2,2,2-trifluoroethoxy)phenyl)acrylamide]",> 98%,> 98%,24.4 nM,12.7 nM,3.87 nM,1.83 nM,45 nM,6.58 nM,8.87 nM

# Source: US12258344B2, “Azaaromatic amide derivatives for the treatment of cancer” (SHENZHEN FORWARD PHARMACEUTICALS CO., LTD., priority 2019, dated 2025)
